Experimental data reported in article PMC8309051, “Structure–Activity Relationship and Molecular Docking of a Kunitz-Like Trypsin Inhibitor, Kunitzin-AH, from the Skin Secretion of Amolops hainanensis” (Pharmaceutics, 2021).
Like-named read-outs stand apart in the source and are kept apart here. Where a SMILES comes first, the peptide text is derived from it. Bridges are numbered along the chain shown (N, C = ends).

Legend:
[1] = target: T1, bovine trypsin (Bos taurus, UniProt P00760); test: Trypsin inhibition assay (kinetic, substrate Phe-Pro-Arg-AMC); type: biochemical
T1 sequence (P00760 24-246): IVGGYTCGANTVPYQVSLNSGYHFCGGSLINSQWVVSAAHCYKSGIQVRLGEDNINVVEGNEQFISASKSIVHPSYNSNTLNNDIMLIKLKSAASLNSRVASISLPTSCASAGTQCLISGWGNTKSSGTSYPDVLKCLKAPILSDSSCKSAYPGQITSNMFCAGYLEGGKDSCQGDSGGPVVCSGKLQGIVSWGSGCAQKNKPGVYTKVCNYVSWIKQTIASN
Protocol: The kinetic enzyme assay was performed as described in the previous study. Substrate Phe-Pro-Arg-AMC was employed for investigating the hydrolysis of bovine trypsin. Trypsin working solution (10 µL trypsin stock solution (0.1 µM) + 9.99 mL HCl (1 mM)) and trypsin substrate working solution (50 µL substrate stock solution (Phe-Pro-Arg-AMC) (10 mM) + 9.95 mL PBS) were prepared prior to use. Trypsin inhibition assay contained three groups, namely positive control (20 µL PBS, 180 µL substrate working solution, 10 µL trypsin working solution), blank control (20 µL PBS + 10 µL HCl (1 mM) + 180 µL substrate working solution) and peptide group (20 µL peptide solution with the concentration ranging from 10 to 1000 µM, 180 µL substrate working solution, 10 µL trypsin working solution). The fluorescent strength released from hydrolysis of the substrate was monitored at 37 °C at the wavelength of 460 nm (excitation at 360 nm) in a POLARstar Omega Microplate Reader (B.M.G. Labtech, Offenburg, German). Each concentration of the sample was carried out in triplicate and repeated at least three times.
Peptide concentration ( μM)
Figure S3. The progress curve of inhibition rate in the presence of different concentrations of pep-tides (a) Kunitzin-AH; (b) AH-1363; (c) AH-unoxidized; (d) AH-1447; (e) AH-798; (f) AH-880-I; (g) […]
The Y-axis represented the rate of the fluorescence decay, while the X-axis represented peptide concentrations in µM. The Ki values were calculated by Morrison formula in Prism 6, in […]
Error bars represent standard error of mean
(SEM) of three replicates. […]

[2] = system: horse erythrocytes; test: Hemolytic activity assay; type: cell-based; conditions: for Hemolysis: 2% horse erythrocytes suspension, 37 °C, two hours
Protocol: Hemolysis assay was conducted through the incubation of peptides and 2% horse erythrocytes suspension (T.C.S. Biosciences Ltd. Buckingham, UK) at 37 °C for two hours as detailed in the previous study. Afterwards, the positive control (considered as 100% hemolysis of cells) was conducted with 1% Triton X-100 (Sigma, Dorset, UK), while the negative control (0%) was treated with phosphate-buffered saline (PBS). The absorbance values were subsequently measured with a Synergy H.T. plate reader (BioTech, Minneapolis, MN, USA) and calculated by using Gen 5 software at a wavelength of 550 nm.

[3] = Morrison formula, three independent experiments, 37 °C, read-out: Ki Value

SMILES | Ki [1, 3] [µM] | Hemolysis [2] [µM] | Ki [1] [µM] | hemolytic activity (in words) ([2]; normal horse erythrocytes)
C[C@@H]1NC(=O)[C@H](C)NC(=O)[C@H](CCCCN)NC(=O)[C@@H](NC(=O)[C@@H](N)CCCNC(=N)N)CSSC[C@@H](C(=O)O)NC(=O)[C@H](Cc2ccccc2)NC1=O [AH-798, RCKAAFC] (H-RCKAAFC-OH; disulfide 2-7) | 1.76 ± 0.13 | >512 | – | –
CC[C@H](C)[C@@H]1NC(=O)[C@H](CCCCN)NC(=O)[C@@H](NC(=O)[C@@H](N)CCCNC(=N)N)CSSC[C@@H](C(=O)O)NC(=O)[C@H](Cc2ccccc2)NC(=O)[C@H]([C@@H](C)CC)NC1=O [AH-880-I, RCKIIFC] (H-RCKIIFC-OH; disulfide 2-7) | 16.1 ± 1.2 | >512 | – | –
N=C(N)NCCC[C@H](N)C(=O)N[C@H]1CSSC[C@@H](C(=O)O)NC(=O)[C@H](Cc2ccccc2)NC(=O)[C@H](CC(N)=O)NC(=O)[C@H](CC(N)=O)NC(=O)[C@H](CCCCN)NC1=O [AH-884, RCKNNFC] (H-RCKNNFC-OH; disulfide 2-7) | 133 ± 4.1 | >512 | – | –
CC(C)[C@H](NC(=O)[C@H](C)N)C(=O)N[C@@H](CCCNC(=N)N)C(=O)N1CCC[C@H]1C(=O)N1CCC[C@H]1C(=O)N[C@@H](Cc1ccccc1)C(=O)N[C@@H](CCCNC(=N)N)C(=O)N[C@@H](CS)C(=O)N[C@@H](CCCCN)C(=O)N[C@@H](C)C(=O)N[C@@H](C)C(=O)N[C@@H](Cc1ccccc1)C(=O)O [AH-1363, AVRPPFRCKAAF] (H-AVRPPFRCKAAF-OH; N-terminus and C-terminus assumed) | – | >512 | 96.9 ± 1.2 | –
CC(C)[C@H](NC(=O)[C@H](C)N)C(=O)N[C@@H](CCCNC(=N)N)C(=O)N1CCC[C@H]1C(=O)N1CCC[C@H]1C(=O)N[C@@H](Cc1ccccc1)C(=O)N[C@@H](CCCNC(=N)N)C(=O)N[C@H]1CSSC[C@@H](C(=O)O)NC(=O)[C@H](CCCCN)NC(=O)[C@H](C)NC(=O)[C@H](C)NC(=O)[C@H](CCCCN)NC1=O [AH-1447, AVRPPFRCKAAKC] (H-AVRPPFRCKAAKC-OH; disulfide 8-13) | – | >512 | 349.2 ± 0.93 | –
CC(C)[C@H](NC(=O)[C@H](C)N)C(=O)N[C@@H](CCCNC(=N)N)C(=O)N1CCC[C@H]1C(=O)N1CCC[C@H]1C(=O)N[C@@H](Cc1ccccc1)C(=O)N[C@@H](CCCNC(=N)N)C(=O)N[C@@H](CS)C(=O)N[C@@H](CCCCN)C(=O)N[C@@H](C)C(=O)N[C@@H](C)C(=O)N[C@@H](Cc1ccccc1)C(=O)N[C@@H](CS)C(=O)O [AH-unoxidized, AVRPPFRCKAAFC] (H-AVRPPFRCKAAFC-OH) | – | >512 | 59.9 ± 2.82 | –
CC(C)[C@H](NC(=O)[C@H](C)N)C(=O)N[C@@H](CCCNC(=N)N)C(=O)N1CCC[C@H]1C(=O)N1CCC[C@H]1C(=O)N[C@@H](Cc1ccccc1)C(=O)N[C@@H](CCCNC(=N)N)C(=O)N[C@H]1CSSC[C@@H](C(=O)O)NC(=O)[C@H](Cc2ccccc2)NC(=O)[C@H](C)NC(=O)[C@H](C)NC(=O)[C@H](CCCCN)NC1=O [Kunitzin-AH, AVRPPFRCKAAFC] (H-AVRPPFRCKAAFC-OH; disulfide 8-13) | – | >512 | 1.18 ± 0.08 | without inducing damage to healthy horse erythrocytes
